Laboratory results from ChEMBL document CHEMBL2434880, “Synthesis and assessment of catechol diether compounds as inhibitors of trypanosomal phosphodiesterase B1 (TbrPDEB1)” (Bioorg Med Chem Lett, 2013).

molecular target: Phosphodiesterase 4 (Homo sapiens, UniProt P27815+Q08499+Q07343+Q08493); test: Inhibition of human PDE4; format: protein assay

IC50 [nM]	SMILES
0.6	COc1ccc(C2=NN(C3CCCCCC3)C(=O)[C@H]3CC=CC[C@@H]23)cc1OCCCCOc1ccc(-c2nn[nH]n2)cc1
10	COc1ccc(C2=NN(C3CCCC3)C(=O)[C@H]3CC=CC[C@@H]23)cc1OC1CCCC1

system: Trypanosoma brucei brucei; test: Antitrypanosomal activity against Trypanosoma brucei brucei; format: functional, organism-based

EC50 [nM]	SMILES
80	COc1ccc(C2=NN(C3CCCCCC3)C(=O)[C@H]3CC=CC[C@@H]23)cc1OCCCCOc1ccc(-c2nn[nH]n2)cc1

molecular target: T1, Class 1 phosphodiesterase PDEB1 (Trypanosoma brucei) (UniProt Q8WQX9); test: Inhibition of Trypanosoma brucei recombinant PDEB1 at 10 uM by spectrophotometric analysis relative to control
T1 sequence (whole entry): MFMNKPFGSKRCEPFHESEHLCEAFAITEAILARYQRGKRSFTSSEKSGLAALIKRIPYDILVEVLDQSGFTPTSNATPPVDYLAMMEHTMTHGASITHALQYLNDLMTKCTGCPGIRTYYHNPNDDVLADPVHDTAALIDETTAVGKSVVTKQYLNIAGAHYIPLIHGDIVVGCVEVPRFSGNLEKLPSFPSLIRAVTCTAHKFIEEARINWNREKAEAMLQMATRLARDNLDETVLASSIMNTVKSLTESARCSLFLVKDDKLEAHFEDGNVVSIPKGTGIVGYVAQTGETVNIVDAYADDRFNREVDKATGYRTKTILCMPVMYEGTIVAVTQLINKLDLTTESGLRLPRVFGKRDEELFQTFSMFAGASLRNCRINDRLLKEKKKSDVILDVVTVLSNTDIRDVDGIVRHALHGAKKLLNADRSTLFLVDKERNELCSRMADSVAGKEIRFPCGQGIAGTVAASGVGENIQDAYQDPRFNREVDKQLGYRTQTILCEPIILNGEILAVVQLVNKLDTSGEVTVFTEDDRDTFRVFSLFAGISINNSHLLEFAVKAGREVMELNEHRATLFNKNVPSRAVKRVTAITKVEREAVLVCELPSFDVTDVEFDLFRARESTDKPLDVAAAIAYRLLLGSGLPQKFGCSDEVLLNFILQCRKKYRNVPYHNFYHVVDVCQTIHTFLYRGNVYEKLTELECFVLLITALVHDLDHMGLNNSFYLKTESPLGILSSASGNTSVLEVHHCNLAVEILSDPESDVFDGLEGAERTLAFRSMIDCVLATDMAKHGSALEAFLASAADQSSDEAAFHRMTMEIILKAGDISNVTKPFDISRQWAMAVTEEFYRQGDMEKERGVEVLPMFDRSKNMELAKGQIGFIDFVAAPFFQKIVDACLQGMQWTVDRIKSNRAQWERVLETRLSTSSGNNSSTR

SMILES	inhibition [%]
COc1ccc(-c2ccnc(NCc3ccccc3)c2)cc1OCc1ccccc1	7.2
COc1ccc(-c2ccc(OC)c(OC3CCCC3)c2)cn1	7.6
COc1ccc(-c2ccnc(NC3CCCCCC3)n2)cc1OCc1ccccc1	22.3
COc1ccc(-c2ccnc(NC3CCC3)n2)cc1OCc1ccccc1	16.1
COc1ccc(-c2ccnc(NC3CCCCC3)n2)cc1OCc1ccccc1	23.2
COc1ccc(-c2ccnc(N(C)C)c2)cc1OC1CCCC1	34
COc1ccc(-c2cccc3ncccc23)cc1OC1CCCC1	69.1
COc1ccc(-c2ccnc(NCc3ccccc3)n2)cc1OC1CCCC1	32.9
COc1ccc(-c2ccnc(N(C)C)c2)cc1OCc1ccccc1	48
COc1ccc(-c2ccnc(NC3CCCCC3)c2)cc1OCc1ccccc1	28.4
COc1ccc(-c2ccnc(NC3CCCC3)n2)cc1OCc1ccccc1	21.8
COc1ccc(-c2ccnc(N(C)C)n2)cc1OCc1ccccc1	14.5
COc1ccc(-c2ccnc(NCc3ccccc3)n2)cc1OCc1ccccc1	18.5
COc1ccc(-c2ccnc(N(C)C)n2)cc1OC1CCCC1	15.8

The remaining lines, values ahead:

inhibition [%]	SMILES
3.9	COc1ccc(-c2ccnc(NC3CCC3)n2)cc1OC1CCCC1
18.7	COc1ccc(-c2ccncc2)cc1OC1CCCC1
29.8	COc1ccc(-c2ccnc(NC3CCCCC3)n2)cc1OC1CCCC1
27.1	COc1ccc(-c2ccnc(NC3CCCCC3)c2)cc1OC1CCCC1
12.7	COc1ccc(-c2ccnc(NC3CCCC3)n2)cc1OC1CCCC1
20.6	COc1ccc(-c2ccnc(NC3CCCCCC3)n2)cc1OC1CCCC1

system: not listed separately; test: Inhibition of Trypanosoma brucei PDEB2

SMILES	IC50 [nM]
COc1ccc(C2=NN(C3CCCCCC3)C(=O)[C@H]3CC=CC[C@@H]23)cc1OCCCCOc1ccc(-c2nn[nH]n2)cc1	6
COc1ccc(C2=NN(C3CCCC3)C(=O)[C@H]3CC=CC[C@@H]23)cc1OC1CCCC1	544

molecular target: T2, Class 1 phosphodiesterase PDEB1 (Trypanosoma brucei, UniProt Q8WQX9); test: Inhibition of Trypanosoma brucei PDEB1
T2 sequence (Q8WQX9 whole entry): T1 sequence (whole entry)

IC50 [nM]	SMILES
278	COc1ccc(C2=NN(C3CCCC3)C(=O)[C@H]3CC=CC[C@@H]23)cc1OC1CCCC1
